Data: US20230126447A1, “OCULAR DRUG DEPOT FOR COMPLEMENT-MEDIATED DISORDERS” (priority 2020, published 2023)
Read-outs that look alike come from different tables or passages of the source.

Columns and labels:
[1] = Ocular tissue distribution and pharmacokinetics, 15 mg/kg BID oral, nonpigmented New Zealand White rabbits (Example 7); assay type: in vivo
Protocol: For Groups 2 through 4, blood (approximately 2 mL) was collected via a jugular vein using a syringe and needle and was transferred into tubes containing K2EDTA at approximately 12 hours after the a.m. dose on Day 15 from the two animals designated for sacrifice at approximately 240 hours after the a.m. dose on Day 15. For Groups 2 through 4, two animals/group/time point were sacrificed via an overdose of sodium pentobarbital prior to dosing on Day 15 and at approximately 1, 6, 24, 96, 168, and 240 hours after the a.m. dose on Day 15. Blood (approximately 2 mL) was collected from all animals at sacrifice into tubes containing K2EDTA via exsanguination (cardiac puncture). Blood was maintained on wet ice, in chilled cryoracks, or at approximately 5° C. prior to centrifugation to obtain plasma. Centrifugation began within 1 hour of collection (Deviation). Plasma was placed into 96-well tubes with barcode labels. Plasma was maintained on dry ice prior to storage at approximately −70° C. At the time of sacrifice, both eyes were enucleated, and the following tissues were collected. Each eye was flash-frozen in liquid nitrogen for 15 to 20 seconds. The enucleated eye was placed on dry ice or stored at approximately −70° C. for at least 2 hours. Within approximately 3 days, the frozen matrices were collected as right and left eyes for each matrix into the specific tube type listed. At the time of frozen collection, the ocular tissues were rinsed with saline and blotted dry (as appropriate), weighed, and placed on dry ice. All ocular tissues were collected as single samples.

[2] = QWBA tissue distribution of [14C] Compound 1, pigmented Long-Evans rats (PO, IV); assay type: in vivo; conditions: male LE rats, 20 mg/kg PO
Protocol: This study was conducted to determine the tissue distribution of drug-related radioactivity following a single oral (PO) (20 mg/kg) or intravenous (IV) (5 mg/kg) administration of [^14C]
Ten adult male pigmented Long-Evans (LE) rats (Group 1), 1 adult male LE rat (Group 2), and 3 albino Wistar Han (WH) rats (Group 3) received a single oral 20 mg/kg (Groups 1 and 3) or IV 5 mg/kg (Group 2) dose of [^14C] […] The formulation was prepared at a target dose of 5 mg (IV) or 20 mg (PO) […]
The carcasses were frozen in hexane dry-ice and stored at or below −20° C. prior to processing for QWBA. Each carcass was embedded, cut into sagittal sections, and mounted for QWBA. […] The lower limit of quantitation was 0.105 μg equiv/g.

[3] = Choroid-RPE (OU), male NZW rabbits, Group 4, Day 15, 15 mg/kg/dose BID oral (30 mg/kg/day)
[4] = ICB (OU), male NZW rabbits, Group 4, Day 15, 15 mg/kg/dose BID oral (30 mg/kg/day)
[5] = NZW rabbits, Day 15, 15 mg/kg BID, 96 hr
[6] = NZW rabbits, Day 15, 15 mg/kg BID, 168 hr
[7] = NZW rabbits, Day 15, 15 mg/kg BID, 240 hr
[8] = New Zealand White, rabbit, choroid-RPE, oral, NZW rabbits, Day 15, 15 mg/kg BID, read-out: Mean Choroid-RPE Concentration
[9] = New Zealand White, rabbit, iris-ciliary body, oral, NZW rabbits, Day 15, 15 mg/kg BID, read-out: Mean Iris-Ciliary Concentration
[10] = New Zealand White, rabbit, plasma, oral, NZW rabbits, Day 15, 15 mg/kg BID, read-out: Mean Plasma Concentration
[11] = New Zealand White, rabbit, retina, oral, NZW rabbits, Day 15, 15 mg/kg BID, read-out: Mean Retina Concentration
[12] = New Zealand White, rabbit, plasma, male NZW rabbits, Group 4, Day 15, 15 mg/kg/dose BID oral (30 mg/kg/day)
[13] = Retina (OU), male NZW rabbits, Group 4, Day 15, 15 mg/kg/dose BID oral (30 mg/kg/day)
[14] = plasma, male NZW rabbits, Group 4, Day 15, 15 mg/kg/dose BID oral (30 mg/kg/day)

CC(=O)c1nn(CC(=O)N2C[C@H](F)C[C@H]2C(=O)Nc2cccc(Br)n2)c2ccc(-c3cnc(C)nc3)cc12 [Compound 1, (2S,4R)-1-(2-(3-Acetyl-5-(2-methylpyrimidin-5-yl)-1H-indazol-1-yl)acetyl)-N-(6-bromopyridin-2-yl)-4-fluoropyrrolidine-2-carboxamide] showed an AUC0-12 [1, 3] of 1440 ng·h/g, an AUC0-240 [1, 3] of 2370 ng·h/g and an AUC(0-24) [1, 3] of 1830 ng·h/g. For the same molecule, the AUC(0-t) [1, 3] was 1830 ng·h/g, the Ctrough [1, 3] was 50.7 ng/g and the “DN AUC0-12” value [1, 3] was 95.9 (h*ng/g)/(mg/kg/dose). The “DN AUC0-24” value [1, 3] was 122 (h*ng/g)/(mg/kg/day), the “DN AUC0-240” value [1, 3] was 158 (h*ng/g)/(mg/kg/day) and the “DN Cmax” value [1, 3] was 19.8 (ng/g)/(mg/kg/day. For the same molecule, the AUC0-12 [1, 4] was 356 ng·h/g, the AUC(0-24) [1, 4] was 453 ng·h/g and the AUC(0-t) [1, 4] was 453 ng·h/g. For the same molecule, the Ctrough [1, 4] was 14.6 ng/g, the “DN AUC0-12” value [1, 4] was 23.7 (h*ng/g)/(mg/kg/dose) and the “DN AUC0-24” value [1, 4] was 30.2 (h*ng/g)/(mg/kg/day). The “DN Cmax” value [1, 4] was 4.33 (ng/g)/(mg/kg/day), the “Mean Choroid-RPE concentration” value [1, 5] was “BLQ” and the “Mean plasma concentration” value [1, 5] was “BLQ”. For the same molecule, the “Mean retina concentration” value [1, 5] was “BLQ”, the “Mean Choroid-RPE concentration” value [1, 6] was “BLQ” and the “Mean plasma concentration” value [1, 6] was “BLQ”. For the same molecule, the “Mean retina concentration” value [1, 6] was “BLQ”, the “Mean Choroid-RPE concentration” value [1, 7] was “BLQ” and the “Mean plasma concentration” value [1, 7] was “BLQ”. The “Mean retina concentration” value [1, 7] was “BLQ”, the concentration at 0 h [1, 8] was 40.3 ng/g and the concentration at 1 h [1, 8] was 296 ng/g. For the same molecule, the concentration at 6 h [1, 8] was 68.6 ng/g, the concentration at 24 h [1, 8] was 14.9 ng/g and the Tmax ([1]; New Zealand White, rabbit, choroid-retinal pigment epithelium (choroid-RPE), Choroid-RPE (OU), male NZW rabbits, Group 4, Day 15, 15 mg/kg/dose BID oral (30 mg/kg/day)) was 1 h. It also gave a Tmax ([1]; New Zealand White, rabbit, iris-ciliary body (ICB), ICB (OU), male NZW rabbits, Group 4, Day 15, 15 mg/kg/dose BID oral (30 mg/kg/day)) of 1 h, a Cmax ([1]; New Zealand White, rabbit, iris-ciliary body (ICB), ICB (OU), male NZW rabbits, Group 4, Day 15, 15 mg/kg/dose BID oral (30 mg/kg/day), read-out: Cmax) of 64.9 ng/g and a concentration at 1 h [1, 9] of 64.9 ng/g. It also gave a concentration at 6 h [1, 9] of 21.2 ng/g, a concentration at 24 h [1, 9] of 1.6 ng/g and a concentration at 0 h [1, 10] of 53.8 ng/mL. The concentration at 1 h [1, 10] was 558 ng/mL, the concentration at 6 h [1, 10] was 179 ng/mL and the concentration at 12 h ([1]; New Zealand White, rabbit, plasma, oral, NZW rabbits, Day 15, 15 mg/kg BID, 12 hr) was 82.2 ng/mL. For the same molecule, the concentration at 24 h [1, 10] was 11.7 ng/mL, the concentration at 0 h [1, 11] was 36.3 ng/g and the concentration at 1 h [1, 11] was 248 ng/g. For the same molecule, the concentration at 6 h [1, 11] was 86.1 ng/g, the concentration at 24 h [1, 11] was 9.18 ng/g and the Tmax ([1]; New Zealand White, rabbit, Retina (OU), male NZW rabbits, Group 4, Day 15, 15 mg/kg/dose BID oral (30 mg/kg/day)) was 1 h. It also gave a Tmax [1, 12] of 1 h, a half-life [1, 12] of 4.53 h and an AUC0-12 [1, 13] of 1420 ng·h/g. For the same molecule, the AUC0-240 [1, 13] was 2160 ng·h/g, the AUC(0-24) [1, 13] was 1830 ng·h/g and the AUC(0-t) [1, 13] was 1830 ng·h/g. For the same molecule, the Ctrough [1, 13] was 60.4 ng/g, the “DN AUC0-12” value [1, 13] was 94.4 (h*ng/g)/(mg/kg/dose) and the “DN AUC0-24” value [1, 13] was 122 (h*ng/g)/(mg/kg/day). The “DN AUC0-240” value [1, 13] was 144 (h*ng/g)/(mg/kg/day), the “DN Cmax” value [1, 13] was 16.5 (ng/g)/(mg/kg/day) and the AUC(0-t) ([1]; male, New Zealand White, rabbit, plasma, po, 15 mg/kg, plasma, male NZW rabbits, Group 4, Day 15, 15 mg/kg/dose BID oral (30 mg/kg/day), read-out: AUC0-12) was 2930 ng·h/mL. The AUC(0-t) ([1]; male, New Zealand White, rabbit, plasma, po, 15 mg/kg, plasma, male NZW rabbits, Group 4, Day 15, 15 mg/kg/dose BID oral (30 mg/kg/day), read-out: AUC0-240) was 3910 ng·h/mL, the AUC(0-t) ([1]; male, New Zealand White, rabbit, plasma, po, 15 mg/kg, plasma, male NZW rabbits, Group 4, Day 15, 15 mg/kg/dose BID oral (30 mg/kg/day), read-out: AUC0-t) was 3490 ng·h/mL and the Cmax [1, 14] was 558 ng/mL. For the same molecule, the Ctrough [1, 14] was 82.2 ng/mL, the “DN AUC0-12” value [1, 14] was 195 (h*ng/mL)/(mg/kg/dose) and the “DN AUC0-24” value [1, 14] was 233 (h*ng/mL)/(mg/kg/day). The “DN AUC0-240” value [1, 14] was 261 (h*ng/mL)/(mg/kg/day), the “DN Cmax” value [1, 14] was 37.2 (ng/mL)/(mg/kg/day) and the “Concentration of radioactivity at Tmax, adrenal gland cortex” value [2] was 33.5 μg equiv/g. For the same molecule, the “Concentration of radioactivity at Tmax, liver” value [2] was 52.0 μg equiv/g, the “Concentration of radioactivity at Tmax, small intestine” value [2] was 77.9 μg equiv/g and the “Concentration of radioactivity at Tmax, stomach” value [2] was 374 μg equiv/g. The “Concentration of radioactivity at Tmax, tissues with the lowest concentrations (brain, spinal cord, bone, testis, lens of the eye)” value [2] was less than 1.00 μg equiv/g, the “Concentration of radioactivity at Tmax, urinary bladder” value [2] was 54.2 μg equiv/g and the “Concentration of radioactivity at Tmax, white adipose” value [2] was 21.1 μg equiv/g. The “t1/2, eye uvea” value [2] was 576 h, the “t1/2, liver” value [2] was 48.5 h and the “t1/2, pigmented skin” value [2] was 472 h. For the same molecule, the “Concentration of radioactivity at Tmax, bile” value ([2]; 1 h) was 232 μg equiv/g, the “Highest concentration of radioactivity in blood” value ([2]; 1 h post-dose) was 5.28 μg equiv/g and the “Concentration of radioactivity at Tmax, urine” value ([2]; 4 h) was 66.2 μg equiv/g. For the same molecule, the “Concentration of radioactivity in blood” value ([2]; 8 h post-dose) was 0.184 μg equiv/g and the “Tissues with quantifiable concentrations at 672 h” value ([2]; 672 h) was “Only eye (uvea) and pigmented skin”.
